Reference: ChEMBL document CHEMBL1128997, “Synthesis and antitumor activity of a new class of water soluble camptothecin derivatives” (Bioorg Med Chem Lett, 1996)
pIC50: −log10 of the molar value.

Experiments:
L1210 = assay: Compound was tested in vitro for cytotoxicity against L1210 murine leukemia cells.; type: functional, cell-based; settings: Mus musculus
DNA topoisomerase 1 = biological target: T1, DNA topoisomerase 1 (Homo sapiens, UniProt P11387); assay: Compound was tested in vitro for inhibition of topoisomerase I.
T1 sequence (P11387 whole entry): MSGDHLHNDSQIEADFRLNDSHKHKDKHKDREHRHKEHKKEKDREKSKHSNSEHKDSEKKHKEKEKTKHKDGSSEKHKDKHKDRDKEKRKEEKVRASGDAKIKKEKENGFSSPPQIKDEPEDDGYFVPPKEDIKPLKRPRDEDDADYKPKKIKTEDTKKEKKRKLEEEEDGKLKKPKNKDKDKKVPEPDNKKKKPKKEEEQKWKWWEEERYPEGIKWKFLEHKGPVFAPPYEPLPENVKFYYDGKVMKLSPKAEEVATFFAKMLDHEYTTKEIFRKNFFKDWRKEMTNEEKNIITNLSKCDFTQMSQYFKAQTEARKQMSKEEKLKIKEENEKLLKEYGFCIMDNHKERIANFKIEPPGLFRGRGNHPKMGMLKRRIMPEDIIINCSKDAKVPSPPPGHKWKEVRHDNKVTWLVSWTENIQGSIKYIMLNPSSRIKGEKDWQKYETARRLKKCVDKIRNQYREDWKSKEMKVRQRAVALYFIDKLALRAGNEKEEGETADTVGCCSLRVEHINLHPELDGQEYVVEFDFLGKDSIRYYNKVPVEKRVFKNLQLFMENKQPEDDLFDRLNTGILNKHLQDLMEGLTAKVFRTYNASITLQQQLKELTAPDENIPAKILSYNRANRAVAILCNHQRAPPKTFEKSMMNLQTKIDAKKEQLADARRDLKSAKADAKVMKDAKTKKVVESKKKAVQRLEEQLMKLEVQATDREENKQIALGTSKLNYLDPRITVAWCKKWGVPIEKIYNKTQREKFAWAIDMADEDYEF

Mus musculus [1] = assay: Activity against L1210 ascitic leukemia expressed as ratio of the median survival time of treated mice to that of untreated control X 100 after iv administration at a optimal dose of 20 mg/Kg; type: functional
Mus musculus [2] = assay: Activity against L1210 ascitic leukemia expressed as ratio of the median survival time of treated mice to that of untreated control X 100 after ip administration at a optimal dose of 15 mg/Kg; type: functional
Mus musculus [3] = assay: Activity against L1210 ascitic leukemia expressed as ratio of the median survival time of treated mice to that of untreated control X 100 after ip administration at a optimal dose of 1.5 mg/Kg; type: functional
Mus musculus [4] = assay: Activity against L1210 ascitic leukemia expressed as ratio of the median survival time of treated mice to that of untreated control X 100 after iv administration at a optimal dose of 2.5 mg/Kg; type: functional
Mus musculus [5] = assay: Activity against L1210 ascitic leukemia expressed as ratio of the median survival time of treated mice to that of untreated control X 100 after iv administration at a optimal dose of 15 mg/Kg; type: functional
Mus musculus [6] = assay: Activity against L1210 ascitic leukemia expressed as ratio of the median survival time of treated mice to that of untreated control X 100 after ip administration at a optimal dose of 10 mg/Kg; type: functional

Compound	pIC50 (L1210)	pIC50 (DNA topoisomerase 1)	T/C (Mus musculus [1])	T/C (Mus musculus [2])	T/C (Mus musculus [3])	T/C (Mus musculus [4])	T/C (Mus musculus [5])	T/C (Mus musculus [6])
CC[C@@]1(O)C(=O)OCc2c1cc1n(c2=O)Cc2cc3c(/N=C(\C)N(C)C)cccc3nc2-1	6.16	5.46						
CC[C@@]1(O)C(=O)OCc2c1cc1n(c2=O)Cc2cc3c(/N=C/N(C)C)cccc3nc2-1.Cl	6.97	4.72	200%	175%				
CCc1c2c(nc3cccc(/N=C/N(C)C)c13)-c1cc3c(c(=O)n1C2)COC(=O)[C@]3(O)CC	7.28	5.44						
CC[C@@]1(O)C(=O)OCc2c1cc1n(c2=O)Cc2cc3c(N)cccc3nc2-1 [9-AMINOCAMPTOTHECIN]	7.90	5.38			163%	138%		
CC[C@@]1(O)C(=O)OCc2c1cc1n(c2=O)Cc2cc3c(/N=C/N(C)c4ccccc4)cccc3nc2-1	7.55	5.66						
CC[C@@]1(O)C(=O)OCc2c1cc1n(c2=O)Cc2cc3c(N/C=N/C)cccc3nc2-1.Cl	7.28	5.18					167%	169%
CC[C@@]1(O)C(=O)OCc2c1cc1n(c2=O)Cc2cc3cc(/N=C/N(C)C)ccc3nc2-1	7.02	4.38						
CC[C@@]1(O)C(=O)OCc2c1cc1n(c2=O)Cc2cc3c(/N=C/N4CCOCC4)cccc3nc2-1	6.90	4.16						
CC[C@@]1(O)C(=O)OCc2c1cc1n(c2=O)Cc2cc3c(NC=N)cccc3nc2-1.Cl	7.03	4.69		219%			143%	
